# Assay results from EP0672415A1, “Organopathy preventing, curing or ameliorating agent” (priority 1994, dated 1995).
# Where “and” joins values, the source holds several entries; their conditions need not be identical. Equal values may be shown once. Read-outs that look alike come from different tables or passages of the source.
# Assays:
# Large-White pigs = assay: Orthotopic liver transplantation following 8 hour cold preservation in pigs (second description); type: in vivo
# Protocol: Orthotopic liver transplantations following 8 hour cold preservation were performed. Large-White pigs weighing 35-40 Kg were used after 24 hours starvation. Pigs were randomly divided into 2 groups. In Group 1, the PAF antagonist treatment group, consisting of 9 donors and 9 recipients, the PAF antagonist the compound (I) was given in the solutions (1mg/L) for flush-out and preservation at donor operation. It was also administered into recipients (0.3mg/Kg body weight) as an infusion and given in the solution (1mg/L) for rinsing before reperfusion of the graft (RPF) at recipient operation. Group 2, the untreated control group, consisted of 9 donors and 9 recipients that received the same solutions or intravenous infusion only without the compound (I). The solutions for flush-out and preservation of the graft liver were simplified UW solution in which hydroxyethyl starch was omitted from the original formulation of UW solution described for liver preservation, according to the reports showing that hydroxyethyl starch is not an essential component in UW solution.
# Following premedication with ketamine (10mg/Kg i.m.), the ear vein was cannulated and saline perfusion was started. After injection of ketamine (5mg/Kg i.v.) and pancuronium (0.2mg/Kg i.v.), the animals were […]. Anesthesia was maintained by inhalation with 3L oxygen, 4L nitrous oxide and 1.5% ethranne. […] Following intravenous injection of heparine (10,000IU), the subrenal abdominal aorta was cannulated. […] The gallbladder was incised and washed with saline. The liver was harvested and dipped in 4üÄ UW solution bath.
# The recipient pigs were anesthesized as described in donor operation. The right carotid artery and the right subclavian vein were then cannulated for blood pressure monitoring and blood sampling and for intravenous fluid infusion, respectively. After laparotomy, the liver was dissected free and removed. During anhepatic period, the portal blood was passively shunted by a tube between the portal vein and the right external jugular vein. […] The graft liver was reperfused with the portal blood after completion of the portal vein anastomosis. The bile duct was drained by external tube fistula. Immediately before the anastomosis of the portal vein, to remove the preservation solution, the graft liver was flushed with 500ml of Ringers lactate containig dextrase (5g%), mannitol (1.25g%) and sodium bicarbonate (0.21g%) as previously described. […] In our operations, the duration between the warm rinsing and RPF was less than 3 miniutes by using the cuff technique in portal vein anastomosis.
# Intraoperative fluid infusion was as follows; 500ml of saline containing dextrose (2.5g%) was infused through the ear vein between the begining of the operation and the anhepatic period. In Group 1, The compound (I) (0.3mg/Kg) was mixed in this solution. During the anhepatic period, 500-750ml of saline containing sodium bicarbonate (0.21g%) was rapidly infused to prevent hypotension. Prior to RPF, sodiumu bicarbonate (1.05g) and calcium gluconate (0.1g) were injected intravenously. As a total, 1.5-2L of the fluid was infused during operation without any blood transfusion. Postoperatively, 0.5-1.0L of 5% dextrose solution was infused for the first 12 hours. Sodium bicarbonate was given to correct metabolic acidosis when necessary. No immunosuppressant was administered.
# (§1) (1-Ethyl-2-[N-(2-methoxy)benzoyl-N-[(2R)-2-methoxy-3-( 4-octadecylcarbamoyloxy)piperidinocarbonyloxypopoxy]carbonyl]aminomethylpyridinium chloride, molecular weight 860.5) was supplied in powder form by Eisai Co.,Ltd. (Japan). It is soluble in water and saline, and a 1.5 mg/ml solution was prepared with saline immediately before use.
# AKBR was measured at the time of cannulation in the right carotid artery (before), and at 1, 2, 4 and 12 hours after RPF. […]
# [1] = Solubility in water and physiological saline; type: physicochemical
# Protocol: The compound (I) soluble in both water and physiological saline was dissolved in physiological saline to prepare a solution of the compound (I) (1.5 mg/ml) prior to use.
# as §1
# [2] = tested on: porcine liver transplantation model; assay: Porcine liver transplantation model (8 hr cold preservation, sympatric transplantation); type: in vivo, swine
# Protocol: A model was employed in which swine each weighing 30 to 40 kg were used, the livers were extirpated therefrom and preserved at low temperature for 8 hr, and sympatric liver transplantation was carried out. More specifically, the swine were starved for 24 hr, and randomly divided into two groups. Group 1 consisted of 9 donors and 9 recipients, which were treated with the above compound of the present invention. In the surgical operation of the donors, the compound (I) was added to the perfusate and the preservation fluid (1 mg/ℓ). Further, the compound (I) was continuously intravenously administered to the recipients (0.3 mg/kg) and added, in the surgical operation thereof, to the washing fluid for washing away the preservation fluid from the interior of each of the transplant livers (1 mg/ℓ).
# Group 2 as a control group not treated with the compound of the present invention consisted of 9 donors and 9 recipients, for which the same continuous intravenous administration was carried out with the use of the same fluids as for Group 1, except that the compound (I) was not added thereto. A University of Wisconsin (hereinafter referred to as "UW") fluid prepared in a simplified manner was used for the perfusion and preservation of the transplant livers. The fluid was one obtained by omitting hydroxyethylstarch from the composition of the UW fluid customarily employed in the preservation of livers.
# For each of the donors, premedication with ketamine (10 mg/kg) was conducted, and the auricular vein was cannulated to initiate the administration of physiological saline. Ketamine (5 mg/kg, i.v.) and pancronium (0.2 mg/kg, i.v.) were administered, and thereafter the airway was secured. The donor under surgical operation was kept anesthetized by inhalation of 3 ℓ of oxygen, 4 ℓ of laughing gas and 1.5% ethrane.
# Heparin (10,000 IU) was intravenously injected, and thereafter the subrenal ventral aorta was cannulated. […] The gallbladder was dissected, and washed with physiological saline. The resultant liver was taken out, and immersed in a UW fluid bath. […] The transplant liver was preserved at 4°C for 8 hr.
# Each of the recipient swine was also anesthetized in the same manner as described above with respect to the surgical operation of the donors. The right carotid artery and the right subclavian vein were cannulated for blood pressure monitoring and blood sampling and for intravenous injection, respectively. The abdomen was cut open, and the liver was detached and removed. During the ahepatic period, the blood from the portal vein was passively bypassed through a shunt tube inserted into the portal vein and the right external jugular vein. […] After the completion of the anastomosis with the portal vein, the transplant liver was reperfused with the blood from the portal vein.
# The bile duct was drained outside the body through a biliary external fistula tube.
# Just before the anastomosis with the portal vein, the transplant liver was perfused with lactated Ringer's solution (500 ml) containing dextrose (5 wt.%), mannitol (1.25 wt.%) and sodium bicarbonate (0.21 wt.%) to thereby remove the preservation fluid. The washing fluid was held at 30 to 37°C. Within 3 min of the hot washing, the transplant liver was reperfused.
# During the ahepatic period starting with the initiation of the surgical operation, physiological saline (500 ml) containing dextrose (2.5 wt.%) was administered through the auricular vein. For the Group 1, the compound (I) (0.3 mg/kg) was mixed in the saline solution. During the ahepatic period, 500 to 750 ml of physiological saline containing sodium bicarbonate (0.21 wt.%) was rapidly injected in order to prevent blood pressure lowering. Sodium bicarbonate (1.05 g) and calcium gluconate (0.1 g) were intravenously administered prior to the reperfusion of the transplant liver. During the surgical operation, no transfusion was conducted, and a total of 1.5 to 2.0 ℓ of infusion solution was administered. […]
# human platelets = settings: reported value; read-out: IC50 value, inhibition of aggregation of human platelets induced by PAF; cited from earlier work
# Slc:ICR mice = assay: Acute toxicity test, single intravenous administration, mice; type: in vivo, Mouse; settings: for Acute toxicity (LD₅₀): Mouse, Intravenous Injection, single administration
# Protocol: (§2) A single administration toxicity test was carried out by effecting intravenous injections (medium: physiological saline) to a group consisting of five male and five female 7 to 8-weeks-old Slc:SD rats and a group consisting of five male and five female 7 to 8-weeks-old Slc:ICR mice.
# Slc:SD rats = assay: Acute toxicity test, single intravenous administration, rats; type: in vivo, Rat; settings: for Acute toxicity (LD₅₀): Rat, Intravenous Injection, single administration
# Protocol: as §2
# [3] = tested on: rat liver transplantation; settings: livers ischemic for 60 min, untreated group 0%, cited from earlier work
# [4] = Group 1, 4 hr after the reperfusion (p<0.05)
smiles,measurement,setting,value
"CCCCCCCCCCCCCCCCCCNC(=O)OC1CCN(C(=O)OCC(COC(=O)N(Cc2cccc[n+]2CC)C(=O)c2ccccc2OC)OC)CC1.[Cl-] (stereo not drawn) [compound (I), 1-ethyl-2-[N-(2-methoxy)benzoyl-N-{2-methoxy-3-(4-octadecylcarbamoyloxy)piperidinocarbonyloxypropoxy}carbonyl]aminomethylpyridinium chloride]",hematocrit values,"Large-White pigs; Group 1 (both groups alike), course after RPF","increased markedly at 2 hours after RPF, and then gradually decreased"
same,survival of all the 9 pigs,Large-White pigs; Group 1 (treated),more than 4 days
same,platelet count,"Large-White pigs; Group 1, at 2 hours after RPF",slightly increased at 2 hours
same,lactate level in arterial blood,"Large-White pigs; Group 1, at 12 hours after RPF",restored to the primary levels
same,"Histological examination by light microscopy (HE stain): necrosis of hepatocytes, exudate of inflammatory cells, microvesicular changes","Large-White pigs; Group 1, reperfused liver at 1 hour after RPF",rarely seen
same,content of glycogen in hepatocytes (PAS staining),"Large-White pigs; Group 1 versus Group 2, at 1 hour after RPF",lesser content of glycogen in hepatocytes in Group 2 than in Group 1
same,AKBR,"Large-White pigs; Group 1 versus Group 2, at 4 hours after RPF","tendency to be higher in Group 1 than in Group 2, though not significant"
same,Survival,"Large-White pigs; individual pigs of Group 1 (n=9) (treated): 1mg/L in flush-out, preservation and rinsing solutions, 0.3mg/Kg infusion to recipients, 0.3 mg/kg",>7 POD (4×) and 4 POD and 5 POD and 6 POD (2×) and 7 POD
same,solubility,[1],soluble
same,hematocrit values,"[2]; Group 1 (both groups alike), course after the reperfusion","rapidly increased 2 hr after the reperfusion, and gradually decreased thereafter"
same,survival of all of the 9 swine,[2]; Group 1 (treated group),at least 4 days
same,12-hr or longer survinal rate,"[2]; Group 1, 9/9, Group 2 (untreated) 56% (5/9)",100%
same,lactate level of arterial blood,"[2]; Group 1, 2 hr after the reperfusion",9.9 ± 1.0 mmol/L
same,platelet count,"[2]; Group 1, 2 hr later",309.8 ± 21.6 ×10³/µℓ
same,leukocyte count,"[2]; Group 1, 2 hr later (p<0.01 vs Group 2)",14.3 ± 1.8 ×10³/µℓ
same,GOT level,[2]; [4],712 ± 97 U/ℓ
same,GPT level,[2]; [4],65 ± 4 U/ℓ
same,lactate level of arterial blood,[2]; [4],6.2 ± 1.1 mmol/L
same,lactate level of arterial blood,"[2]; Group 1, 12 hr after the reperfusion",recovered to the initial level
same,AKBR,"[2]; Group 1, 12 hr after the reperfusion, significantly higher than Group 2 (p<0.05)",recovered to the normal condition level
same,platelet count,"[2]; Group 1, 12 hr later",227.8 ± 13.4 ×10³/µℓ
same,AKBR,"[2]; Group 1, during 4 hr after the reperfusion, compared with Group 2",only slightly higher than that of the Group 2
same,leukocyte count,"[2]; Group 1, prior value",11.5 ± 1.1 ×10³/µℓ
same,platelet count,"[2]; Group 1, prior value",294.4 ± 19.8 ×10³/µℓ
same,"Histologic study (optical microscope): hepatocyte necroses, stagnation of hepatosinusoidal inflammatory cells, vacuolar degeneration","[2]; Group 1, reperfused liver 1 hr after the reperfusion",little observed
same,glycogen content of the hepatocytes (staining),"[2]; Group 1 versus Group 2, 1 hr after the reperfusion",the glycogen content of the hepatocytes in the Group 2 was smaller than that in the Group 1
same,Period of Survival,"[2]; individual recipient swine of Group 1 (treated): 1 mg/ℓ in perfusate, preservation fluid and washing fluid, 0.3 mg/kg i.v. to recipients, 0.3 mg/kg",7 days or more (4×) and 4 days and 5 days and 6 days (2×) and 7 days
same,IC50,human platelets,0.66 nM
same,Acute toxicity (LD₅₀),Slc:ICR mice; Female,50.0 mg/kg
same,Acute toxicity (LD₅₀),Slc:ICR mice; Male,46.8 mg/kg
same,LD₅₀ values relative to the clinical dose in intravenous injection,Slc:ICR mice; mouse LD₅₀ values of Table 1,≥ 50 times
same,Acute toxicity (LD₅₀),Slc:SD rats; Female,22.8 mg/kg
same,Acute toxicity (LD₅₀),Slc:SD rats; Male,18.2 mg/kg
same,LD₅₀ values relative to the clinical dose in intravenous injection,Slc:SD rats; rat LD₅₀ values of Table 1,≥ 50 times
COC1=C(OC)C(=O)C(C/C=C(\C)CC/C=C(\C)CC/C=C(\C)CC/C=C(\C)CC/C=C(\C)CC/C=C(\C)CC/C=C(\C)CC/C=C(\C)CC/C=C(\C)CCC=C(C)C)=C(C)C1=O [coenzyme Q₁₀],one-week survival rate,[3]; 10 mg/kg intravenously to the donor rats prior to the operation,about 50%
same,one-week survival rate,[3]; 10 mg/kg intravenously to the recipient rats prior to the operation,about 50%
